Reference: publication PMC8838460, “Expression, Purification, and Comparative Inhibition of Helicobacter pylori Urease by Regio-Selectively Alkylated Benzimidazole 2-Thione Derivatives” (Molecules, 2022)
Where two headings read alike, the source gives them in different places.

How the values were obtained:
Rat [1] = settings: TOPKAT structural similar compounds, cited from earlier work
Mouse = test system: Mouse; design: method as in earlier work; settings: TOPKAT structural similar compounds; ref CPDB; cited from earlier work
Rat [2] = settings: TOPKAT structural similar compounds; ref CPDB; cited from earlier work
fibroblast cells = assay: In vitro cytotoxicity, neutral red assay on fibroblast cells; assay type: cell-based; settings: for inhibition at 0.003 µM: Conc. 0.003 µM; for inhibition at 0.007 µM: Conc. 0.007 µM; for inhibition at 0.015 µM: Conc. 0.015 µM; for inhibition at 0.031 µM: Conc. 0.031 µM; for inhibition at 0.064 µM: Conc. 0.064 µM; for inhibition at 0.123 µM: Conc. 0.123 µM; for cytotoxicity (in words): in high concentrations
Method: The active compounds were selected and subjected to cytotoxicity evaluation using the neutral red assay. Cytotoxic assays were performed according to Borenfreund and Puerner.

H. pylori Urease = H. pylori Urease (Helicobacter pylori, UniProt P69996); assay: Urease inhibition assay (indophenol method) on recombinant H. pylori urease; assay type: biochemical; settings: for Type of inhibition (in words): H. pylori urease; for Vmax: H. pylori urease with inhibitor
H. pylori Urease, sequence (P69996 whole entry): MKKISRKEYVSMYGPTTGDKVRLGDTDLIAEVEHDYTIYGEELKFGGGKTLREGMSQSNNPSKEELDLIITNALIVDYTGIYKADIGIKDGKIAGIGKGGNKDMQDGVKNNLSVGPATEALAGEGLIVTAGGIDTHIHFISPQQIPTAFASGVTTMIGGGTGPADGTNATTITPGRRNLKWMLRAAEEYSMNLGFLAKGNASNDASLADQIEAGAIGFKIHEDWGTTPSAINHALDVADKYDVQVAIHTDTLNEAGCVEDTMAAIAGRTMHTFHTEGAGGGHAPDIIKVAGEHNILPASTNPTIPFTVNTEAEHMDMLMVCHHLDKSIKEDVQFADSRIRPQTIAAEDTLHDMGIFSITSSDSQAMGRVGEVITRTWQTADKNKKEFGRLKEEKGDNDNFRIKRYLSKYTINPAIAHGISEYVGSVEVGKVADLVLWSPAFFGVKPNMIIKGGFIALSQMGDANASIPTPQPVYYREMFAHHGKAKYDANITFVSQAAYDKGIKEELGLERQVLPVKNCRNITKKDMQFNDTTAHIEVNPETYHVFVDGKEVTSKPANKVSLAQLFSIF
H. pylori Urease, sequence (P14916 whole entry, further chain): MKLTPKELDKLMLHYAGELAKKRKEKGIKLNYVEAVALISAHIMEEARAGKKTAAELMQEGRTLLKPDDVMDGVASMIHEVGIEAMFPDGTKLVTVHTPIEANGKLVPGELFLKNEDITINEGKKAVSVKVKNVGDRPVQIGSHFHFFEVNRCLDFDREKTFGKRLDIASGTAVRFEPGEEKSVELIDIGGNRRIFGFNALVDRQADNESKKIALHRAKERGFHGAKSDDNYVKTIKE
Method: (§1) Reaction mixtures comprising 25 μL of urease enzymes solution and 55 μL of sodium phosphate buffers containing 100 mM urea were incubated with 5 μL of tested compounds above (0.5 mM concentration) at 30 °C for 15 min in 96-well plates. Urease activity was determined by measuring the ammonia production using the indophenol method as described by Weatherburn. Briefly, 45 μL of each phenol reagent (1% w/v phenol and 0.005% w/v sodium nitroprussside) and 70 μL of alkali reagent (0.5% w/v NaOH and 0.1% active chloride NaOCl) were added to each well. The absorbance at 630 nm was measured after 50 min using a microplate reader (SPECTRO star Nano, Ortenberg, Germany). All reactions were performed in triplicate in a final volume of 200 μL. The results (change in absorbance per min) were processed by using MARS Data Analysis Version 2.41, software (SPECTRO star Nano, Ortenberg, Germany).
(§2) The assays were performed at pH 6.8. The percentage of inhibitions were calculated from the formula 100 − (ODtest well/ODcontrol) × 100. Thiourea was used as the standard inhibitor of Urease.
(§3) The concentrations of the test compounds that inhibited the hydrolysis of substrates by 50% (IC50) were determined by monitoring the effect of various concentrations of these compounds in the assays on the inhibition values. The IC50 values were then calculated using Graph Pad Prism 6 software.

J. bean Urease = target: T1, J. bean Urease (Canavalia ensiformis, UniProt P07374); assay: Urease inhibition assay (indophenol method) on commercial Jack bean urease; assay type: biochemical; settings: for Type of inhibition (in words): J. bean urease; for Vmax: J. bean urease with inhibitor
T1 construct: purchased
T1 sequence (P07374 whole entry, looked up): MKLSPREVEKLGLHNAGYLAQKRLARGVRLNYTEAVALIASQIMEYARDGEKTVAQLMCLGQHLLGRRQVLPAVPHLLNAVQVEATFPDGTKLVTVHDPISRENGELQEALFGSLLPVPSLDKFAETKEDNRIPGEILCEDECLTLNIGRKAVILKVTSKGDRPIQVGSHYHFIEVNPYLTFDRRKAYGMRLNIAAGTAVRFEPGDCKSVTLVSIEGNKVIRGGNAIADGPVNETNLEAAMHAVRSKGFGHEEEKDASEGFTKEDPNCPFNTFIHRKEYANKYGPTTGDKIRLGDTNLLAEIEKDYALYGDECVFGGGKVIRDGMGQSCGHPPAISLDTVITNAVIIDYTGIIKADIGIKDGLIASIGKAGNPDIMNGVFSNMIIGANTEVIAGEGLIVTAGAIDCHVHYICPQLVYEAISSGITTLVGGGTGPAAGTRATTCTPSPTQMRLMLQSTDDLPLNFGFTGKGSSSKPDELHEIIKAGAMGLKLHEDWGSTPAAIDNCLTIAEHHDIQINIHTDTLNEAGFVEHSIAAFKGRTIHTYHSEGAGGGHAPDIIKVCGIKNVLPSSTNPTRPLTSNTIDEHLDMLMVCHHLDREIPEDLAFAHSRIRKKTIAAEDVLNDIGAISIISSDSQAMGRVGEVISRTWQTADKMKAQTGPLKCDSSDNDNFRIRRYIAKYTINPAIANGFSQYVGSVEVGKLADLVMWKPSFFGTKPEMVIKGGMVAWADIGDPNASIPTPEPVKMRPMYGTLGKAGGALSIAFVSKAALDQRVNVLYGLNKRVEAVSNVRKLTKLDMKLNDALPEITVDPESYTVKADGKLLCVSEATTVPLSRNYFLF
Method: as §1, §2, §3

## CC(O)CN (stereo not drawn) [1-AMINO-2-PROPANOL]
Rat [1]; ref JACTDZ 6(1);53;87
  Actual Endpoint (-log C), Rat Oral LD50: 1.554 -log C

## Cc1ccc(NC(N)=O)cc1 [p-Tolylurea]
Mouse
  Actual Endpoint (-log C), Carcinogenic Potency TD50 Mouse: 2.863 -log C

## c1ccc2[nH]c(SCC3CO3)nc2c1 (stereo not drawn)
other
  melting point: 211 °C

## CCCCSc1nc2ccccc2[nH]1
other
  melting point: 145 °C

## CC(C)(Oc1ccc(C2CC2(Cl)Cl)cc1)C(=O)O (stereo not drawn) [Ciprofibrate, reference compound]
Mouse
  Actual Endpoint (-log C), Carcinogenic Potency TD50 Mouse: 4.669 -log C

## Sc1nc2ccccc2s1 [2-Mercaptobenzothiazole]
Rat [2]
  Actual Endpoint (-log C), Carcinogenic Potency TD50 Rat: 2.687 -log C

## NC(=S)Nc1ccccc1 [1-PHENYL-2-THIOUREA]
Rat [1]; ref JMPCAS 4;109;61
  Actual Endpoint (-log C), Rat Oral LD50: 4.705 -log C

## CC(O)CSc1nc2ccccc2[nH]1 (stereo not drawn)
other
  melting point: 250 °C

## O=c1ccc(=O)[nH][nH]1 [MALEIC HYDRAZIDE]
Rat [1]; ref WRPCA2 9;119;70
  Actual Endpoint (-log C), Rat Oral LD50: 1.47 -log C

## Methylhydrazine s
Mouse
  Actual Endpoint (-log C), Carcinogenic Potency TD50 Mouse: 3.785 -log C

## CCOC(CSc1nc2ccccc2[nH]1)OCC
other
  melting point: 80 °C

## Cc1cccc(NC(N)=O)c1 [m-TOLYLUREA]
Rat [1]; ref IIFBA4 12;195;69
  Actual Endpoint (-log C), Rat Oral LD50: 2.053 -log C

## S=C1NCCC(COc2ccccc2)O1 (stereo not drawn) [TIFEMOXONE, reference compound]
Rat [1]; ref ATSUDG 1;229;78
  Actual Endpoint (-log C), Rat Oral LD50: 2.006 -log C

## Sc1nc2ccccc2[nH]1 [Compound 2, 1H-Benzimidazole-2(3H)-thione]
Fibroblast cells; Fibroblast
  inhibition at 0.009 µM: 20%
Fibroblast cells; fibroblast cells
  inhibition at 0.003 µM: 40.4%
  inhibition at 0.007 µM: 44%
  inhibition at 0.015 µM: 49.4%
  inhibition at 0.031 µM: 49.5%
  inhibition at 0.064 µM: 80.6%
  inhibition at 0.123 µM: 82.5%
  cytotoxicity (in words): not cytotoxic
H. pylori Urease
  Type of inhibition (in words): non-competitive
  Vmax: 1.54 ± 0.057 µmol/min
J. bean Urease
  IC50: 260 ± 8 µM
  Type of inhibition (in words): non-competitive
  Vmax: 1.53 ± 0.005 µmol/min

## O=Nc1ccc(Nc2ccccc2)cc1 [p-Nitrosodiphenylamine]
Rat [2]
  Actual Endpoint (-log C), Carcinogenic Potency TD50 Rat: 2.994 -log C

## CC(N)=O [Acetamide]
Mouse
  Actual Endpoint (-log C), Carcinogenic Potency TD50 Mouse: 1.293 -log C
Rat [2]
  Actual Endpoint (-log C), Carcinogenic Potency TD50 Rat: 2.516 -log C

## CNN [METHYLHYDRAZINE]
Rat [1]; ref XAWPA2 CWL
  Actual Endpoint (-log C), Rat Oral LD50: 3.158 -log C

## CC(=O)Nc1ccc(O)cc1 [Acetaminophen, reference compound]
Rat [2]
  Actual Endpoint (-log C), Carcinogenic Potency TD50 Rat: 2.485 -log C

## OCCCSc1nc2ccccc2[nH]1
other
  melting point: 119 °C

## CCOCn1c(=S)[nH]c2ccccc21 [Compound 5, 1-(Ethoxymethyl)-1H-benzo[d]imidazole-2(3H)-thione]
Fibroblast cells; fibroblast cells
  inhibition at 0.003 µM: -28.8%
  inhibition at 0.007 µM: -15.9%
  inhibition at 0.015 µM: 4.6%
  inhibition at 0.031 µM: 26.2%
  inhibition at 0.064 µM: 52.1%
  inhibition at 0.123 µM: 53.5%
  cytotoxicity (in words): not cytotoxic
Fibroblast cells; fibroblast cells, Conc. 0.009 µM, read-out: % Inhibition
  inhibition at 0.009 µM: -61.2%
H. pylori Urease
  Type of inhibition (in words): uncompetitive
  Vmax: 1.52 ± 0.024 µmol/min
J. bean Urease
  IC50: 290 ± 18 µM
  Type of inhibition (in words): non-competitive
  Vmax: 1.60 ± 0.04 µmol/min

## N#CCSc1nc2ccccc2n1CC#N
other
  melting point: 161 to 163 °C

## CC(=O)NN [Monoacetyl hydrazine]
Mouse
  Actual Endpoint (-log C), Carcinogenic Potency TD50 Mouse: 3.876 -log C

## CCOc1ccccc1C(N)=O [o-Ethoxybenzamide]
Mouse
  Actual Endpoint (-log C), Carcinogenic Potency TD50 Mouse: 2.508 -log C

## CC(=N)S [Thioacetamide]
Rat [2]
  Actual Endpoint (-log C), Carcinogenic Potency TD50 Rat: 3.815 -log C

## CCCCCCCCCCCSc1nc2ccccc2[nH]1
other
  melting point: 104 °C

## NC(=O)Nc1ccccc1
Rat [1]; ref IIFBA4 12;195;69
  Actual Endpoint (-log C), Rat Oral LD50: 1.833 -log C

## CCOc1ccc(NC(C)=O)cc1 [Phenacetin, reference compound]
Rat [2]
  Actual Endpoint (-log C), Carcinogenic Potency TD50 Rat: 2.156 -log C

## Oc1ccccc1O [Catechol]
Mouse
  Actual Endpoint (-log C), Carcinogenic Potency TD50 Mouse: 2.654 -log C

## CCOCSc1nc2ccccc2n1COCC
other
  melting point: 108 °C
